{
  "source": "patent US20230293063A1",
  "about": "(SOMNUS SCIENTIFIC LTD, priority 2020, published 2023)",
  "origin": "cited, not measured here",
  "data": [
    {"smiles": "CC(C)c1cccc(C(C)C)c1O", "note": "[propofol, 2,6-diisopropylphenol]", "values": [
      {"measurement": "fraction metabolized in the liver", "setting": "Smits, Annaert and Allegaert, 2017", "value": 90, "unit": "%"},
      {"measurement": "free fraction of the total drug concentration", "setting": "blood", "value": 2, "unit": "%"}
    ]}
  ]
}
